Data on 18 compounds can be found in patent US11351178B2, “Selective HDAC6 inhibitors” (ITALFARMACO S.P.A., priority 2017, dated 2022).

The test system of series [1] is B 697 promyelocytic cell line. The series can be described thus: Cytotoxicity on 697 cell line (CellTiter 96). It counts as cell-based. As to conditions: 72 hours incubation, read-out: 697 TOXICITY
The protocol: (§1) Cytotoxic activity was evaluated on B 697 […] cell line for all synthesized compounds and on peripheral blood mononuclear cells (PBMCs) for compounds showing a good potency/selectivity profile.
(§2) Cells were seeded in plate (2×10^4 cells per well for 697, 5×10^5 cells per well for PBMCs). The test compounds (concentrations from 1.5 nM to 10000 nM for PBMCs and from 1 nM to 10000 nM for 697) were added after 24 hours and incubated 72 hours. The molecules cytotoxic activity was evaluated using CellTiter 96© Aqueous One Solution Cell Proliferation Assay (Promega), which measures the mitochondria function, following the manufacturer's instructions.

Series [2] concerns peripheral blood mononuclear cells (PBMCs). The series is described as follows: Cytotoxicity on PBMCs (CellTiter 96). The format is cell-based. The note with it: PBMC, 72 h; read-out: PBMC TOXICITY (72 h). The protocol:
as §1, §2

Another series has as its target T1, recombinant human HDAC6 (Homo sapiens, UniProt Q9UBN7).
T1 sequence (Q9UBN7 1-1215): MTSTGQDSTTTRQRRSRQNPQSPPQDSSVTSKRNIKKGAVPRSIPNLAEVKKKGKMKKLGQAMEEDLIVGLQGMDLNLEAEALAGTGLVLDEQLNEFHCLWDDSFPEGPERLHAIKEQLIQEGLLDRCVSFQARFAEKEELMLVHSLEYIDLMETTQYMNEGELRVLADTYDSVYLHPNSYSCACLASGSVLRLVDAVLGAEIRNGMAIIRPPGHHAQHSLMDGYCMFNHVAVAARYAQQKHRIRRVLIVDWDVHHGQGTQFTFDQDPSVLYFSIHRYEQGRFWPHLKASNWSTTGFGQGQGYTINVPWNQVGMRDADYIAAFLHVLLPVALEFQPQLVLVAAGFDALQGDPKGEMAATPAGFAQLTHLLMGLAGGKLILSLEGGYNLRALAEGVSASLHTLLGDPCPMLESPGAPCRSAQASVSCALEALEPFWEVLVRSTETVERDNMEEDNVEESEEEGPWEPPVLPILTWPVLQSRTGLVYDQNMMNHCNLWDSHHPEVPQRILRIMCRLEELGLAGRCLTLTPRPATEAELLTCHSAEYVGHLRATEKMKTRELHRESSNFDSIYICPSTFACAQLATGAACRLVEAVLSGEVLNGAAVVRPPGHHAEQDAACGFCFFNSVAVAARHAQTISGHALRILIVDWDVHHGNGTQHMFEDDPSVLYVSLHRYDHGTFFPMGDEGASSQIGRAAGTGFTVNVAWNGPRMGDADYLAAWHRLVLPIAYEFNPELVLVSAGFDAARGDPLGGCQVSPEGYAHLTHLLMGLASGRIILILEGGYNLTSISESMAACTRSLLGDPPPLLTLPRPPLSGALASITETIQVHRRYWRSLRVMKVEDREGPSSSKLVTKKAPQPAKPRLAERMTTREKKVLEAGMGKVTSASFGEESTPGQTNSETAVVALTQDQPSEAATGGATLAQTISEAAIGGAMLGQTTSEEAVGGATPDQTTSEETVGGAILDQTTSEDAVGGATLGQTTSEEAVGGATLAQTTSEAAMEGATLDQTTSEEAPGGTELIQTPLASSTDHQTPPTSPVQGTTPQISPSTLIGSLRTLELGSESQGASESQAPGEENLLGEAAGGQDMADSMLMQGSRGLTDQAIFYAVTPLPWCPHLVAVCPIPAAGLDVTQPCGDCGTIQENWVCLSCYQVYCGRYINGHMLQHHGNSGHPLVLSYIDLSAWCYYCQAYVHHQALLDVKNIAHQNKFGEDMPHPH
The series is described as follows: Enzymatic screening on recombinant human HDAC6. As to conditions: Table 2; read-out: HDAC6 IC50. It counts as biochemical. An outline of the steps:
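Step one: pre-incubate recombinant human HDAC with test compound at 30 °C, with duration set per isoform. Step two: add fluorogenic-type acetyl-lysine substrate (FLUOR DE LYS, its Green variant, or trifluoroacetyl-L-lysine), 2× concentrated in Tris-HCl pH 8 buffer with NaCl, Tween-20 and glycerol. Step three: react at 30 °C.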

A short description of the next series: Stability in rat plasma. It counts as in vitro ADME. The note with it: after 4 hours, 37° C. An outline of the steps: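 Compounds incubated at 37° C in rat or human plasma at 50 μM (UV/HPLC) or 1 or 2 μM (LC-MS/MS) for 0–4 h. Reaction stopped with acidified acetonitrile on ice; percent remaining versus initial amount and plasma half-life calculated.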
A short description of series [3]: Stability to Phase I metabolism in rat S9 liver fraction. The format is in vitro ADME. As to conditions: after 90 min, 37° C. The method in brief:
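Compounds were incubated with rat or human liver S9 fraction at 37 °C for up to 90 min. Reactions were quenched on ice with acidified acetonitrile and analysed by HPLC-UV or LC-MS/MS. Percent remaining versus time zero and intrinsic clearance were calculated.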

Take `CN(Cc1ccccc1)Cc1cccc(-c2nnc(Sc3c(F)cc(C(=O)NO)cc3F)n2C)c1` [comp. 184, 4-[[5-[3-[[benzyl(methyl)amino]methyl]phenyl]-4-methyl-1,2,4-triazol-3-yl]sulfanyl]-3,5-difluoro-benzenecarbohydroxamic acid]: the results for the IC50 (in series [1]; in series [2]; on recombinant human HDAC6) were 14.7 µM, not below 100 µM and 0.017 µM, respectively.

As for `Cn1c(Sc2c(F)cc(C(=O)NO)cc2F)nnc1C1(c2ccccn2)CC1` [comp. 177, 3,5-difluoro-4-[[4-methyl-5-[1-(2-pyridyl)cyclopropyl]-1,2,4-triazol-3-yl]sulfanyl]benzenecarbohydroxamic acid], the IC50 is 50.3 µM in series [1], more than 10 µM in series [2] and 0.021 µM on recombinant human HDAC6.

For `Cn1c(Sc2ccc(C(=O)NO)cc2)nnc1-c1ccc2c(c1)OCO2` [comp. 84, 4-[[5-(1,3-benzodioxol-5-yl)-4-methyl-1,2,4-triazol-3-yl]sulfanyl]benzenecarbohydroxamic acid], the figures for the IC50 (in series [1]; in series [2]; at recombinant human HDAC6) were 5.2 µM, 4.5 µM and 0.021 µM, respectively.

In the case of `COc1cccc(-c2nnc(Sc3ccc(C(=O)NO)cc3)n2C)c1` [comp. 78, 4-[[5-(3-methoxyphenyl)-4-methyl-1,2,4-triazol-3-yl]sulfanyl]benzenecarbohydroxamic acid], the IC50 in series [1] came out at 22.2 µM; in series [2] it was 6 µM; at recombinant human HDAC6 it was 0.02 µM.

With `NCc1ccc(-c2nnn(Cc3ccc(C(=O)NO)cc3)n2)cc1` [comp. 173, 4-[[5-[4-(aminomethyl)phenyl]tetrazol-2-yl]methyl]benzenecarbohydroxamic acid], the figures for the IC50 (in series [1]; in series [2]; at recombinant human HDAC6) were 1.89 µM, 0.948 µM and 0.002 µM, respectively.

For the compound `Cn1c(Sc2c(F)cc(C(=O)NO)cc2F)nnc1-c1cccc(CN2CCCCC2)c1` [comp. 181, 3,5-difluoro-4-[[4-methyl-5-[3-(1-piperidylmethyl)phenyl]-1,2,4-triazol-3-yl]sulfanyl]benzenecarbohydroxamic acid], the IC50 was 50.3 µM in series [1], more than 10 µM in series [2] and 0.01 µM on recombinant human HDAC6.

As for `COC(=O)c1ccc(-c2nnnn2Cc2ccc(C(=O)NO)cc2)nc1` [comp. 157, methyl 6-[1-[[4-(hydroxycarbamoyl)phenyl]methyl]tetrazol-5-yl]pyridine-3-carboxylate], the IC50 in series [1] is 0.913 µM; in series [2], 0.94 µM; on recombinant human HDAC6, 0.027 µM.

For `COC(=O)c1ccc(Cc2nnn(Cc3c(F)cc(C(=O)NO)cc3F)n2)cc1` [comp. 154, methyl 4-[[2-[[2,6-difluoro-4-(hydroxycarbamoyl)phenyl]methyl]tetrazol-5-yl]methyl]benzoate], the IC50 in series [1] was 22.7 µM; in series [2], more than 10 µM; at recombinant human HDAC6 it was 0.032 µM.

Turning to `Nc1ccc(-c2nnnn2Cc2c(F)cc(C(=O)NO)cc2F)cc1` [comp. 172, 4-[[5-(4-aminophenyl)tetrazol-1-yl]methyl]-3,5-difluoro-benzenecarbohydroxamic acid], the IC50 was 61.4 µM in series [1], more than 10 µM in series [2] and 0.008 µM on recombinant human HDAC6.

Consider `NCc1ccc(-c2nnnn2Cc2c(F)cc(C(=O)NO)cc2F)cc1` [comp. 176, 4-[[5-[4-(aminomethyl)phenyl]tetrazol-1-yl]methyl]-3,5-difluoro-benzenecarbohydroxamic acid], for which the IC50 came to 50.3 µM in series [1], 5.3 µM in series [2] and 0.055 µM at recombinant human HDAC6.

`O=C(NO)c1cc(F)c(Cn2nnnc2-c2scc3c2OCCO3)c(F)c1` [comp. 5, 4-((5-(2,3-dihydrothieno[3,4-b][1,4]dioxin-5-yl)-1H-tetrazol-1-yl)methyl)-3,5-difluoro-N-hydroxybenzamide]: the results for the IC50 (in series [1]; at recombinant human HDAC6) were 88.7 µM and 0.017 µM, respectively. The “residual percentage in rat plasma” value in “Stability in rat plasma” is 97%. In series [3], the “residual percentage in rat S9 fraction” value is reported as 36%.

Consider `O=C(NO)c1cc(F)c(Sc2nnc(CN3CCCC3)n2Cc2ccccc2)c(F)c1` [comp. 141, 4-[[4-benzyl-5-(pyrrolidin-1-yl-methyl)-1,2,4-triazol-3-yl]sulfanyl]-3,5-difluoro-benzenecarbohydroxamic acid], for which the IC50 was more than 10 µM in series [1] and 0.025 µM on recombinant human HDAC6. Also, in “Stability in rat plasma”, the “residual percentage in rat plasma” value is 73%. Further, in series [3], the “residual percentage in rat S9 fraction” value was 36%.

For the compound `O=C(NO)c1cc(F)c(Cn2nnc(Cc3ccccn3)n2)c(F)c1.O=C(O)C(F)(F)F` [comp. 134, 3,5-difluoro-4-[[5-(2-pyridylmethyl)tetrazol-2-yl]methyl]benzenecarbohydroxamic acid;2,2,2-trifluoroacetic acid], the IC50 in series [1] is more than 10 µM; on recombinant human HDAC6, 0.01 µM. In the series “Stability in rat plasma”, the “residual percentage in rat plasma” value was found to be 76%. Besides, the “residual percentage in rat S9 fraction” value in series [3] came out at 95%.

Take `Cn1c(Sc2c(F)cc(C(=O)NO)cc2F)nnc1C1(c2ccccc2)CCN(Cc2ccccc2)CC1` [comp. 150, 4-[[5-(1-benzyl-4-phenyl-4-piperidyl)-4-methyl-1,2,4-triazol-3-yl]sulfanyl]-3,5-difluoro-benzenecarbohydroxamic acid]: the IC50 in series [1] worked out at 1.26 µM; on recombinant human HDAC6, 0.024 µM. Also, in the series “Stability in rat plasma”, the “residual percentage in rat plasma” value came to 92%. The “residual percentage in rat S9 fraction” value in series [3] was found to be 35%.

`O=C(NO)c1ccc(Cn2nnc(-c3ncccn3)n2)cc1` [comp. 123, 4-[(5-pyrimidin-2-yltetrazol-2-yl)methyl]benzenecarbohydroxamic acid]: the IC50 in series [1] came to 1.97 µM; on recombinant human HDAC6 it was 0.008 µM. Moreover, in the series “Stability in rat plasma”, the “residual percentage in rat plasma” value is reported as 99%. The “residual percentage in rat S9 fraction” value in series [3] is on record as 99%.

For `Cn1c(Sc2c(F)cc(C(=O)NO)cc2F)nnc1C(C)(C)c1ccccc1` [comp. 4, 3,5-difluoro-N-hydroxy-4-((4-methyl-5-(2-phenylpropan-2-yl)-4H-1,2,4-triazol-3-yl)thio)benzamide], the IC50 in series [1] was more than 10 µM; on recombinant human HDAC6, 0.02 µM. In the series “Stability in rat plasma”, the “residual percentage in rat plasma” value was 106%. In addition, the “residual percentage in rat S9 fraction” value in series [3] was 34%.

Take `Cn1c(Sc2c(F)cc(C(=O)NO)cc2F)nnc1-c1nccc2ccccc12` [comp. 121, 3,5-difluoro-4-[[5-(1-isoquinolyl)-4-methyl-1,2,4-triazol-3-yl]sulfanyl]benzenecarbohydroxamic acid]: the IC50 in series [1] was 5.91 µM; at recombinant human HDAC6, 0.012 µM. In addition, in the series “Stability in rat plasma”, the “residual percentage in rat plasma” value came to 100%. Moreover, in series [3], the “residual percentage in rat S9 fraction” value was 25%.

Take `Cn1c(Sc2c(F)cc(C(=O)NO)cc2F)nnc1-c1cccc(S(=O)(=O)N2CCN(Cc3ccccc3)CC2)c1` [comp. 152, 4-[[5-[3-(4-benzylpiperazin-1-yl)sulfonylphenyl]-4-methyl-1,2,4-triazol-3-yl]sulfanyl]-3,5-difluoro-benzenecarbohydroxamic acid]: the figures for the IC50 (in series [1]; on recombinant human HDAC6) were 1.45 µM and 0.022 µM, respectively. Also, the “residual percentage in rat plasma” value in the series “Stability in rat plasma” was 113%. Further, in series [3], the “residual percentage in rat S9 fraction” value was 31%.
